Tested on: P12-Ichikawa
Experiment: cell viability relative to DMSO control; higher = less cytotoxic
Conditions: 48 h
In short: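 Viability was expressed as a per-plate percentage of DMSO wells, with cell-free wells as background. Leukemia cells (NOMO1 or SEM at 500 cells/well, P12-Ichikawa at 1000 cells/well) were adapted for at least four passages in each medium and seeded in 1536-well plates (5 μl). Library compounds in DMSO were pin-dosed over an 11-point threefold series from 47 μM to 0.79 nM, and CellTiter-Glo One luminescence was read after 48 h at 37°C.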

[1] = HPLM + 10% dialyzed FBS, 0.000781 µM
[2] = HPLM + 10% dialyzed FBS, 0.00234 µM
[3] = HPLM + 10% dialyzed FBS, 0.00702 µM
[4] = HPLM + 10% dialyzed FBS, 0.0211 µM
[5] = HPLM + 10% dialyzed FBS, 0.0632 µM
[6] = HPLM + 10% dialyzed FBS, 0.19 µM
[7] = HPLM + 10% dialyzed FBS, 0.569 µM
[8] = HPLM + 10% dialyzed FBS, 1.71 µM
[9] = HPLM + 10% dialyzed FBS, 5.12 µM
[10] = HPLM + 10% dialyzed FBS, 15.4 µM
[11] = HPLM + 10% dialyzed FBS, 46.1 µM
[12] = RPMI 5 mM glucose + 10% FBS, 0.000781 µM
[13] = RPMI 5 mM glucose + 10% FBS, 0.00234 µM
[14] = RPMI 5 mM glucose + 10% FBS, 0.00702 µM
[15] = RPMI 5 mM glucose + 10% FBS, 0.0211 µM
[16] = RPMI 5 mM glucose + 10% FBS, 0.0632 µM
[17] = RPMI 5 mM glucose + 10% FBS, 0.19 µM
[18] = RPMI 5 mM glucose + 10% FBS, 0.569 µM
[19] = RPMI 5 mM glucose + 10% FBS, 1.71 µM
[20] = RPMI 5 mM glucose + 10% FBS, 5.12 µM
[21] = RPMI 5 mM glucose + 10% FBS, 15.4 µM
[22] = RPMI 5 mM glucose + 10% FBS, 46.1 µM
[23] = RPMI 5 mM glucose + 10% dialyzed FBS, 0.000781 µM
[24] = RPMI 5 mM glucose + 10% dialyzed FBS, 0.00234 µM
[25] = RPMI 5 mM glucose + 10% dialyzed FBS, 0.00702 µM
[26] = RPMI 5 mM glucose + 10% dialyzed FBS, 0.0211 µM
[27] = RPMI 5 mM glucose + 10% dialyzed FBS, 0.0632 µM
[28] = RPMI 5 mM glucose + 10% dialyzed FBS, 0.19 µM
[29] = RPMI 5 mM glucose + 10% dialyzed FBS, 0.569 µM
[30] = RPMI 5 mM glucose + 10% dialyzed FBS, 1.71 µM
[31] = RPMI 5 mM glucose + 10% dialyzed FBS, 5.12 µM
[32] = RPMI 5 mM glucose + 10% dialyzed FBS, 15.4 µM
[33] = RPMI 5 mM glucose + 10% dialyzed FBS, 46.1 µM

| SMILES | cell viability [1] [%] | cell viability [2] [%] | cell viability [3] [%] | cell viability [4] [%] | cell viability [5] [%] | cell viability [6] [%] | cell viability [7] [%] | cell viability [8] [%] | cell viability [9] [%] | cell viability [10] [%] | cell viability [11] [%] | cell viability [12] [%] | cell viability [13] [%] | cell viability [14] [%] | cell viability [15] [%] | cell viability [16] [%] | cell viability [17] [%] | cell viability [18] [%] | cell viability [19] [%] | cell viability [20] [%] | cell viability [21] [%] | cell viability [22] [%] | cell viability [23] [%] | cell viability [24] [%] | cell viability [25] [%] | cell viability [26] [%] | cell viability [27] [%] | cell viability [28] [%] | cell viability [29] [%] | cell viability [30] [%] | cell viability [31] [%] | cell viability [32] [%] | cell viability [33] [%] |
| --- | --- | --- | --- | --- | --- | --- | --- | --- | --- | --- | --- | --- | --- | --- | --- | --- | --- | --- | --- | --- | --- | --- | --- | --- | --- | --- | --- | --- | --- | --- | --- | --- | --- |
| CNC(=O)c1ccc2cc(C3(O)CCn4cncc43)ccc2c1 (stereo unspecified) | 123 | 127 | 115 | 115 | 119 | 123 | 102 | 102 | 108 | 108 | 114 | 123 | 127 | 119 | 127 | 131 | 125 | 129 | 122 | 111 | 133 | 110 | 126 | 117 | 121 | 125 | 118 | 120 | 110 | 117 | 107 | 118 | 105 |
| CC[S+](=O)([O-])c1cccc(-c2cc(C(=O)NC3CCN(C)CC3)c(C)c3[nH]c4ncc(C)cc4c23)c1 | 121 | 122 | 123 | 128 | 123 | 112 | 15.7 | 19.5 | 19 | 26.9 | 34.9 | – | – | – | – | – | – | – | – | – | – | – | – | – | – | – | – | – | – | – | – | – | – |
| Cc1nn(Cc2ccccc2Cl)c(C)c1CN(C)CC(O)COc1ccc(Cl)cc1 (stereo unspecified) | 110 | 101 | 105 | 104 | 108 | 108 | 102 | 97.4 | 104 | 95.1 | 59.6 | 93.9 | 94.5 | 93 | 108 | 97 | 101 | 94.5 | 91.5 | 92.1 | 83.7 | 42.8 | 94 | 98.3 | 95.2 | 95.7 | 98.2 | 92.6 | 94.9 | 92.1 | 89.4 | 89.1 | 39.6 |
| COc1ccccc1OCC(O)COC(N)=O (stereo unspecified) | 88.2 | 107 | 103 | 109 | 109 | 107 | 111 | 117 | 111 | 112 | 58.1 | 112 | 118 | 117 | 114 | 120 | 118 | 124 | 106 | 118 | 126 | 125 | 93.1 | 105 | 101 | 107 | 110 | 103 | 110 | 101 | 113 | 117 | 106 |
| CN[C@@H]1[C@@H](O)[C@@H](O[C@@H]2[C@@H](O)[C@H](O[C@H]3O[C@H](CN)[C@@H](O)[C@H](O)[C@H]3O)[C@@H](N)C[C@H]2NC(=O)[C@@H](O)CN)OC[C@]1(C)O | 123 | 131 | 124 | 122 | 128 | 120 | 126 | 113 | 110 | 108 | 108 | – | – | – | – | – | – | – | – | – | – | – | – | – | – | – | – | – | – | – | – | – | – |
| COCC1(CO)C(=O)C2CCN1CC2 (stereo unspecified) | 90.6 | 103 | 105 | 112 | 108 | 109 | 85.3 | 103 | 81.9 | 37.7 | 4.42 | 92.7 | 109 | 109 | 110 | 106 | 117 | 95.2 | 104 | 77.8 | 53.6 | 6.98 | 103 | 104 | 109 | 115 | 107 | 112 | 96.4 | 101 | 81.8 | 64.2 | 23 |
| c1ccc2[nH]c(-c3cscn3)nc2c1 | 115 | 124 | 124 | 128 | 122 | 128 | 122 | 122 | 108 | 86 | 74.6 | 113 | 118 | 110 | 122 | 128 | 120 | 128 | 120 | 135 | 117 | 90.7 | 124 | 131 | 122 | 124 | 130 | 127 | 130 | 121 | 125 | 109 | 72.9 |
| N#CCNC(=O)c1ccc(-c2ccnc(Nc3ccc(N4CCOCC4)cc3)n2)cc1 | 98.6 | 108 | 118 | 114 | 110 | 110 | 98.8 | 111 | 111 | 77.6 | 34 | 97.9 | 102 | 120 | 115 | 111 | 109 | 95.6 | 108 | 102 | 65.6 | 34 | 115 | 103 | 109 | 113 | 109 | 109 | 99.5 | 98.2 | 97.6 | 70.8 | 25.3 |
| CC(C)OC(=O)C(C(=O)OC(C)C)=C1S\C=C/S1 | 138 | 124 | 122 | 133 | 113 | 124 | 123 | 124 | 126 | 118 | 101 | – | – | – | – | – | – | – | – | – | – | – | – | – | – | – | – | – | – | – | – | – | – |
